Results published in US7022739B2, “Substituted 1-aminobutan-3-ol compounds” (Gruenenthal GmbH, priority 2000, dated 2006).

Assays:
[1] = test system: gabapentin binding site; assay: Gabapentin binding assay (displacement of gabapentin from its binding site)
Protocol: Gabapentin is used in the binding assay in order to check the binding and affinities of the selected compounds. The affinity of the compounds according to the invention is measured via the displacement of gabapentin from its binding site.

[2] = test system: phenylquinone-induced writhing; assay: Phenylquinone-induced writhing test in mice; format: in vivo; conditions: male NMRI mice, groups of 10

SMILES | % Inhibition Gabapentin, 10 μmole [1] [%] | Reacting Animals/Control Animals (Writhing) ([2]; 10 mg/kg, iv) | further results
COc1cccc(C2CCCC(CN(C)C)C2(O)c2ccc(Cl)cc2)c1 (stereo not shown) [Example 45, 1-(4-chlorophenyl)-2-dimethylaminomethyl-6-(3-methoxyphenyl)-cyclohexanol] | 58 | – | –
COc1cccc(C2CCCC(CN(C)C)C2(O)c2cccc(Cl)c2)c1 (stereo not shown) [Example 75, 1-(3-chlorophenyl)-2-dimethylaminomethyl-6-(3-methoxyphenyl)-cyclohexanol] | 54 | – | –
COc1cccc(C2CCCC(CN(C)C)C2(O)c2ccc(C)cc2)c1 (stereo not shown) [Example 76, 2-dimethylaminomethyl-6-(3-methoxyphenyl)-1-p-tolylcyclohexanol] | 53 | – | –
CN(C)CC1CCCC(c2cccc(O)c2)C1(O)c1ccc(F)cc1 (stereo not shown) [Example 81, 3-[3-dimethylaminomethyl-2-(4-fluorophenyl)-2-hydroxycyclohexyl]-phenol] | 48 | – | –
CN(C)CC1CCCC(c2cccc(O)c2)C1(O)c1ccccc1 (stereo not shown) [Example 82, 3-(3-dimethylaminomethyl-2-hydroxy-2-phenylcyclohexyl)-phenol] | 55 | – | –
COc1cccc(C2CCCC(CN(C)C)C2(O)c2ccc(Cl)cc2)c1 (stereo not shown) [Example 85, 1-(4-chlorophenyl)-2-dimethylaminomethyl-6-(3-methoxyphenyl)-cyclohexanol] | – | – | Reacting Animals/Control Animals (Writhing) ([2]; 46.4 mg/kg, iv): 10/10 (46.4 mg/kg; iv)
COc1cccc(C2(O)C(CN(C)C)CCCC2C2CCCCC2)c1 (stereo not shown) [Example 86, 3-dimethylaminomethyl-2-(3-methoxyphenyl)-bicyclohexyl-2-ol] | – | – | Reacting Animals/Control Animals (Writhing) ([2]; 21.5 mg/kg, po): 3/10 (21.5 mg/kg; po)
CN(C)CC1CCCC(Cc2ccccc2)C1(O)c1ccc(C(F)(F)F)cc1 (stereo not shown) [Example 87, 2-benzyl-6-dimethylaminomethyl-1-(4-trifluoromethylphenyl)-cyclohexanol] | – | 2/10 (10 mg/kg; iv) | –
CN(C)CC1CCCC(Cc2ccccc2)C1(O)c1cccc(O)c1 (stereo not shown) [Example 88, 3-(2-benzyl-6-dimethylaminomethyl-1-hydroxycyclohexyl)-phenol] | – | 2/10 (10 mg/kg; iv) | –
CN(C)CC1CCCC(C(C)(C)C)C1(O)c1cccc(O)c1 (stereo not shown) [Example 89, 3-(2-tert.-butyl-6-dimethylaminomethyl-1-hydroxycyclohexyl)-phenol] | – | 3/10 (10 mg/kg; iv) | –
